These results are taken from ChEMBL document CHEMBL4813971, “Development of novel benzofuran-based SLC-0111 analogs as selective cancer-associated carbonic anhydrase isoform IX inhibitors” (Eur J Med Chem, 2021).

The target in assay [1] is T1, Carbonic anhydrase 9 (Homo sapiens, UniProt Q16790). Description: Inhibition of human CA9 by stopped- flow CO2 hydration assay.
The next assay relates to MCF7. Description: Antiproliferative activity against human MCF7 cells incubated for 2 days by MTT assay. As to conditions: MCF7, 48 h. (Tetrazolium assays rely on reduction of a dye to a coloured formazan, in cell work by metabolically active cells.)
The next assay concerns MDA-MB-231. Description: Antiproliferative activity against human MDA-MB-231 cells incubated for 2 days by MTT assay. To be noted: MDA-MB-231, 48 h.
For another assay, the target named is Carbonic anhydrase 1 (Homo sapiens, UniProt P00915). The experiment in a line: Inhibition of human CA1 by stopped- flow CO2 hydration assay.
In assay [2] the target is T1, Carbonic anhydrase 9. The experiment in a line: Inhibition of human CA9 preincubated for 15 mins by phenol red dye based stopped flow CO2 hydration assay.

Structures are written as SMILES. Where only a bound is given, the exact number is not on record here.

As a reminder, the Ki is a measure of affinity in units of concentration, obtained from inhibition or displacement. Low readings indicate higher affinity, high ones lower affinity. In general, IC50 refers to the point on the concentration scale where inhibition reaches its midpoint.

Carbonic anhydrase 1, sequence (P00915 whole entry): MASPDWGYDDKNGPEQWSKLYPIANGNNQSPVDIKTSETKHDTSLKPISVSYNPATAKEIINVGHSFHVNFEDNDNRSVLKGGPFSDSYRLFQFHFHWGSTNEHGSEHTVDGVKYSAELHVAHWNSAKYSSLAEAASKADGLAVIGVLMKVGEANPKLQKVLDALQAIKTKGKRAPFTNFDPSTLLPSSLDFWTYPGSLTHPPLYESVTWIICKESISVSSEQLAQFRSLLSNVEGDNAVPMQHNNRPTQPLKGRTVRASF

At Carbonic anhydrase 9 [1], `Cc1c(NC(=O)NCCc2ccc(S(N)(=O)=O)cc2)oc2ccccc12` gave a Ki of 7.6 nM.

`NS(=O)(=O)c1ccccc1NC(=O)Nc1cc2cc(Br)ccc2o1` registered a Ki on Carbonic anhydrase 9 [1] of 35.8 nM.

In the case of `NS(=O)(=O)c1ccc(NC(=O)Nc2cc3cc(Br)ccc3o2)cc1`, at Carbonic anhydrase 9 [1], the affinity, expressed as Ki, was 7.1 nM.

Take `Cc1c(NC(=O)NNC(=O)c2ccc(S(N)(=O)=O)cc2)oc2ccccc12`: at Carbonic anhydrase 9 [1], the affinity, expressed as Ki, was 12.6 nM.

In turn, `Cc1c(NC(=O)Nc2cc(Cl)c(S(N)(=O)=O)cc2S(N)(=O)=O)oc2ccccc12` had a Ki at Carbonic anhydrase 9 [1] of 53.9 nM.

In the case of `Cc1ccc(NC(=O)Nc2oc3ccccc3c2C)cc1S(N)(=O)=O`, the IC50 came out at 6450 nM with MCF7 and 6270 nM in the assay on MDA-MB-231. For the same compound, on Carbonic anhydrase 9 [1], affinity was put at a Ki of 8.4 nM.

In the case of `Cc1c(NC(=O)Nc2ccccc2S(N)(=O)=O)oc2ccccc12`, at Carbonic anhydrase 9 [1], the Ki worked out at 68.2 nM.

In the case of `Cc1noc(NS(=O)(=O)c2ccc(NC(=O)Nc3cc4cc(Br)ccc4o3)cc2)c1C`, the Ki at Carbonic anhydrase 1 was above 100000 nM; on Carbonic anhydrase 9 [1], 2300 nM.

`NS(=O)(=O)c1ccc(C(=O)NNC(=O)Nc2cc3cc(Br)ccc3o2)cc1` showed a Ki at Carbonic anhydrase 9 [1] of 1.8 nM.

Regarding `NS(=O)(=O)c1cc(S(N)(=O)=O)c(NC(=O)Nc2cc3cc(Br)ccc3o2)cc1Cl`, affinity at Carbonic anhydrase 9 [1] was put at a Ki of 22.8 nM.

On to `Cc1ccc(NC(=O)Nc2cc3cc(Br)ccc3o2)cc1S(N)(=O)=O`, for which the IC50 in the assay with MCF7 stood at 13800 nM; in the assay with MDA-MB-231, 14200 nM. Also, the Ki at Carbonic anhydrase 9 [1] was found to be 5.5 nM.

`C/C(=N\Nc1ccc(S(N)(=O)=O)cc1)c1cc2cc(Br)ccc2o1`: the Ki on Carbonic anhydrase 9 [2] came out at 27.7 nM.

Consider `Cc1c(NC(=O)Nc2ccc(S(=O)(=O)Nc3nccs3)cc2)oc2ccccc12`, for which the affinity at Carbonic anhydrase 9 [1], expressed as Ki, was 650 nM.

On to `Cc1noc(NS(=O)(=O)c2ccc(NC(=O)Nc3oc4ccccc4c3C)cc2)c1C`, for which the values for the Ki on Carbonic anhydrase 1 and at Carbonic anhydrase 9 [1] were above 100000 nM and 560 nM, respectively.

For the compound `Cc1c(NC(=O)Nc2ccc(S(N)(=O)=O)cc2)oc2ccccc12`, the Ki at Carbonic anhydrase 9 [1] was determined as 10.4 nM.

In turn, `Cc1c(NC(=O)Nc2cccc(S(N)(=O)=O)c2)oc2ccccc12` showed a Ki on Carbonic anhydrase 9 [1] of 25.3 nM.

Turning to `NS(=O)(=O)c1cccc(NC(=O)Nc2cc3cc(Br)ccc3o2)c1`, affinity at Carbonic anhydrase 9 [1] was put at a Ki of 20.2 nM.

On to `Cc1c(NC(=O)Oc2ccc(S(N)(=O)=O)cc2)oc2ccccc12`, for which, on Carbonic anhydrase 9 [1], the Ki was 34.5 nM.

For the compound `O=C(Nc1ccc(S(=O)(=O)Nc2nccs2)cc1)Nc1cc2cc(Br)ccc2o1`, the Ki on Carbonic anhydrase 1 is above 100000 nM; at Carbonic anhydrase 9 [1] it was 930 nM.

On Carbonic anhydrase 9 [2], `Cc1ccc(S(=O)(=O)C/C(=N\Nc2ccc(S(N)(=O)=O)cc2)c2cc3cc(Br)ccc3o2)cc1` gave a Ki of 10 nM.
